Reference: publication PMC10388311, “Innovative Strategy toward Mutant CFTR Rescue in Cystic Fibrosis: Design and Synthesis of Thiadiazole Inhibitors of the E3 Ligase RNF5” (Journal of Medicinal Chemistry, 2023)
Values after ≈ are worked out from the molar mass of the structure shown. “Also recorded” adds a separate entry of the source.

Assays:
[1] = target: T1, F508del-CFTR in CFBE41o– cells (Homo sapiens, UniProt Q99942); experiment: HS-YFP microfluorimetric assay of F508del-CFTR rescue (corrector activity); format: cell-based; settings: CFBE41o– cells co-expressing F508del-CFTR and HS-YFP, 24 h treatment, Figure 5
T1 sequence (Q99942 2-180): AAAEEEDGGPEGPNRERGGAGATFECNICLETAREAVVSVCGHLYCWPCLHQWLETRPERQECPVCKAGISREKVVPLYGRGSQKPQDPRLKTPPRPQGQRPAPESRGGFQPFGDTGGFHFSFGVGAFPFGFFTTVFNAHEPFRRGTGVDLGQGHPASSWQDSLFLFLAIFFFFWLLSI
T1 sequence (P13569 with tags, fused parts or gaps DEL508-508 partner): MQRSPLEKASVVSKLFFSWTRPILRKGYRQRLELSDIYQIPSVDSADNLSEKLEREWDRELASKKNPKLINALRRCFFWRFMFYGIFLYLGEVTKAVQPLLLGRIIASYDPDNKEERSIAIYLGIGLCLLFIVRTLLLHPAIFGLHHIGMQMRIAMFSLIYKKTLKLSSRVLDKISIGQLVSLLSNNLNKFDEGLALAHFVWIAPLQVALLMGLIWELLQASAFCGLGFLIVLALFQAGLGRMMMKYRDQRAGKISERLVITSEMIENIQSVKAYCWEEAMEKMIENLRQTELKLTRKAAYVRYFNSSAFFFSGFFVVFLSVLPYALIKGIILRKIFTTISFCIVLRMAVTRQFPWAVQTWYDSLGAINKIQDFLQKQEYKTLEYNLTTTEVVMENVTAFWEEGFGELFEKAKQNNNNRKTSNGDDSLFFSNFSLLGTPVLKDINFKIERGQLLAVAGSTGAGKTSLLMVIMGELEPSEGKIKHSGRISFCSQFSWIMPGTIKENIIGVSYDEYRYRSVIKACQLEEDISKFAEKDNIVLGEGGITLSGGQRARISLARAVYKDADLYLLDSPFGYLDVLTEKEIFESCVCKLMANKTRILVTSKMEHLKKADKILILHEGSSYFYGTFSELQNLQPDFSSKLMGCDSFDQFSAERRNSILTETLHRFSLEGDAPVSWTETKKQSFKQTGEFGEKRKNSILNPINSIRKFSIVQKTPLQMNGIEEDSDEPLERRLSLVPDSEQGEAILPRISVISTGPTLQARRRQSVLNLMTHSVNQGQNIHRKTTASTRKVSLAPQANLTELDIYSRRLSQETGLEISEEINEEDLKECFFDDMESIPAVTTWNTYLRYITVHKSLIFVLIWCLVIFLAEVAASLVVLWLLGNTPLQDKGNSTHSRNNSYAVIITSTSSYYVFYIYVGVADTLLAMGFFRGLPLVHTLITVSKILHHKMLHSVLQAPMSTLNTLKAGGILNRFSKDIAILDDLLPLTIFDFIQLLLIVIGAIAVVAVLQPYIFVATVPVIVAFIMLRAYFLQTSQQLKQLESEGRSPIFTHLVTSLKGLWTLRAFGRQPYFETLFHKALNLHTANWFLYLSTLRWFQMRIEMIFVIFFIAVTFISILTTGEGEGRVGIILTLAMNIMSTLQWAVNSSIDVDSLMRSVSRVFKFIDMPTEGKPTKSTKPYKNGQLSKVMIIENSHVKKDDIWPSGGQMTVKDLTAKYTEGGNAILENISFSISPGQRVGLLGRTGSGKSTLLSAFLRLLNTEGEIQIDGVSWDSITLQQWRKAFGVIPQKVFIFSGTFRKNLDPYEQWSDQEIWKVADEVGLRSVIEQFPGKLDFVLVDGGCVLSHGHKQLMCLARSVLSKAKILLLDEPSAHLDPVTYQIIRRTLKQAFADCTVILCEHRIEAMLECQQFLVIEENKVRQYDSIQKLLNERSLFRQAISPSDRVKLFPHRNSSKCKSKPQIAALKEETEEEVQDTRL
Method: As a primary screen, the new thiadiazole derivatives 1–46 (Table 1) were tested for their ability to rescue the F508del-CFTR trafficking defect in CFBE41o^– cells, stably co-expressing F508del-CFTR and the HS-YFP (Figure 5). This cell line has been extensively used by our group, in combination with the microfluorimetric assay based on the HS-YFP, to identify and characterize many CFTR correctors.[39],[47] This assay relies on the hypothesis that RNF5 inhibition results in increased mutant CFTR processing and activity. Therefore, it can easily identify putative RNF5 inhibitors, but not other types of RNF5-binding compounds that could have no effect or have a negative effect on CFTR function, such as RNF5 activators (see analog-1). Thus, we opted for this assay as our primary aim was the identification of RNF5 inhibitors as a possible therapeutic strategy in CF. Twenty-four hours after seeding on 96-well plates, CFBE41o^– cells stably expressing F508del-CFTR and the HS-YFP were treated with test compounds at the desired concentration, one compound per well. Cells treated with vehicle alone (DMSO) and with corrector VX-809 (1 μM), respectively, served as negative and positive controls. At the time of the assay, cells were washed with PBS containing (in […]) 137 NaCl, 2.7 KCl, 8.1 Na2HPO4, 1.5 KH2PO4, 1 CaCl2, and 0.5 MgCl2. Cells were then incubated for 25 min with […] of PBS plus forskolin (20 μM) and VX-770 (1 μM) to maximally stimulate F508del-CFTR. Cells were then transferred to a microplate reader (FluoStar Galaxy; BMG Labtech, Offenburg, Germany) for CFTR activity determination. The plate reader was equipped with high-quality excitation (HQ500/20X: 500 ± 10 nm) and emission (HQ535/30M: 535 ± 15 nm) filters for YFP (Chroma Technology). Each assay comprised a continuous 14 s fluorescence reading and 2 s before and 12 s after injection of […] of an iodide-containing solution (PBS with Cl^– replaced by I^–; final I^– concentration […]). Data were normalized to the initial background-subtracted fluorescence. To determine the I^– influx rate, the final 11 s of the data for each well was fitted with an exponential function to extrapolate initial slope (dF/dt). Reproducibility of results was confirmed by performing three independent experiments. CFBE41o^– cells co-expressing F508del-CFTR and the HS-YFP were reverse-transfected with 50 nM (final concentration) siRNAs (Stealth, Life Technologies) in the presence of lipofectamine 2000 as a transfection agent. The following day, the medium was changed, and the cells were incubated at 37 °C for additional 24 h treated with test compounds at the desired concentration, prior to processing the cells for the YFP-based functional assay.

[2] = Solubility and aggregation in PBS buffer by NMR (SPAM filter, 1H 1D and WaterLOGSY); format: physicochemical; settings: PBS pH 7.5, 1 μM ZnCl2, 1 mM DTT, 10% D2O, 1% DMSO-d6; for solubility: PBS buffer, aqueous buffer, kinetic from dmso stock, theoretical concentration 20 μM, read-out: solubility in PBS buffer by NMR, 20 μM; for aggregation in PBS buffer by NMR: WaterLOGSY; for solubility at 50 µM: theoretical concentration 50 μM; for solubility at 100 µM: theoretical concentration 100 μM
From the text: Under these circumstances, it was decided to explore the solubility of all the synthetized compounds, regardless of their biological activities, to find a suitable candidate for the validation of our working hypothesis, i.e., that the compounds exert their activities by directly binding to RNF5. For that, we first calculated the predicted octanol/water partition coefficient (log Po/w) and the predicted aqueous solubility (log S) of all the analogues by QikProp (Schrödinger Release 2022-1: QikProp, Schrödinger, LLC, New York, NY, 2021, Table S1). […] To shrink down the number of compounds for solubility experiments, just the ones that had −2.0 < log Po/w < 6 and −6.5 < log S <0.5 values were selected. Among them, the PBS solubility was determined for five representative analogues: (i) 12 and 29 bearing different substituents on the benzyl group A; (ii) 34 and 40 showing the replacement of rings B and C with pyridine-4-yl moieties; (iii) 42 in which the N-phenylbenzamidine portion was replaced with a pyridine-2-yl moiety (Table 1).
All the NMR experiments were recorded at 298 K using a 5 mm CryoProbe QCI ^1H/^19F–^13C/^15N–D quadruple resonance, a shielded z-gradient coil, and an automatic sample changer SampleJet NMR system with temperature control. The solubility of the compounds were evaluated by ^1H 1D experiments and aggregation by WaterLOGSY, testing the compounds in buffer PBS pH 7,5, 1 μM ZnCl2, 1 mM DTT, 10% D2O (for the lock signal), and 1% DMSO-d6 at the theoretical concentrations of 20, 50, and 100 μM in the presence of 200 μM 4-trifluoromethyl benzoic acid (internal reference). For all samples, a 1D ^1H NMR experiment was recorded, the water suppression was obtained using the standard NOESY (nuclear Overhauser effect spectroscopy) preset Bruker pulse sequence, with 64k data points, a spectral width (sw) of 30 ppm, 64 scans, acquisition time (aq) of 1.835 s, a relaxation delay (d1) of 4 s, and a mixing time of 10 ms. […] The data were multiplied by an exponential window function with 1 Hz line broadening prior to Fourier transformation. For NMR binding experiments, the compounds were tested at 50 μM in buffer PBS pH 7.5, 1 μM ZnCl2, 1 mM DTT, 10% D2O (for the lock signal), and 1% DMSO-d6 in the absence and in the presence of 3 μM RNF5. WaterLOGSY experiments were recorded with the same parameters used in solubility assays, but with a higher number of scans (512); STD experiments were recorded with 128 scans, with two on (0.7 and 1 ppm) and one off (−50 ppm) resonance spectra, a Gaussian-shaped train pulse of 50 ms each was employed, with a total saturation time of the protein envelope of 5, 3, 2, 1.5, 1, or 0.5 s. A T1ρ filter of 2 ms was employed in STD experiments to eliminate the background signals from the protein. The STD spectrum was obtained by subtraction of the on-resonance spectrum from the off-resonance spectrum. Subtraction was performed by phase cycling to minimize artifacts arising from magnet and temperature instabilities.

[3] = tested on: ATG4B-mediated basal autophagy in F508del-CFTR-expressing CFBE41o– cells; experiment: Labeling of autophagic vacuoles with monodansylcadaverine (MDC); format: cell-based, human; settings: test compounds 5 μM 24 h; torin-1 20 nM and SAR-405 2 μM in the last 3 h
From the text: To further support our hypothesis that CFTR rescue following treatment with test compounds was indeed due to RNF5 inhibition, we considered additional biological processes known to be regulated by RNF5 ligase activity. To this aim, we focused our attention on ATG4B, a known regulator of basal autophagy, whose degradation is mediated by RNF5 activity.[54]In vivo ubiquitination experiments previously confirmed that inh-2 inhibits ATG4B degradation, thus increasing the basal level of autophagy.[40] […] We thus evaluated the effect of inh-2 analogues on induction of the autophagy pathway. To this aim, we monitored the formation of autophagic vacuoles in F508del-CFTR-expressing CFBE41o^– cells (Figure 8) by using the autolysosome marker monodansylcadaverine (MDC). MDC accumulates inside autophagosomes. After fusion of autophagosomes with lysosomes, MDC fluorescence increases due to the acidic environment.[55] Therefore, F508del-CFTR-expressing CFBE41o^– cells were treated for 24 h with test compounds (5 μM), VX-809 (1 μM), or DMSO alone (vehicle). In the last 3 h of incubation, we added torin-1 (20 nM), a known autophagy inducer, and SAR-405 (2 μM), a potent inhibitor of the autophagic pathway. The cells were then loaded with MDC and evaluated by high-content confocal imaging to detect signal spots (corresponding to autophagic vacuoles) in each cell.
CFBE41o^– cells stably expressing F508del-CFTR and the HS-YFP were plated (50,000 cells/well) on good-quality clear-bottom 96-well black microplates suitable for high-content imaging. After 24 h, cells were treated with test compounds or DMSO (as the negative control). […] After 24 h, cells were incubated with 50 μM MDC (Sigma-Aldrich) in PBS at 37 °C for 10 min.[62] After incubation, cells were washed three times with PBS and immediately analyzed. High-content imaging and data analysis were performed using the Opera Phenix (PerkinElmer) high-content screening system. Wells were imaged in confocal mode using a 40× water-immersion objective. The MDC signal was laser-excited at 405 nm, and the emission wavelengths were collected between 435 and 550 nm. Data analysis of MDC spot number was performed using the Harmony software (ver 4.5) of the Opera Phenix high-content system. Data are expressed as means ± SEM, n = 3 independent experiments. Statistical significance was tested by parametric ANOVA followed by the Dunnet multiple comparisons test (all groups against the control group).

CFBE41o– cells = experiment: Apoptosis assay (Hoechst 33342 / propidium iodide, high-content imaging); format: cell-based, human; settings: 24 h, 100 μM
Method: We performed a preliminary evaluation of the effect of chronic treatment with selected analogues on the proliferation and apoptosis of CFBE41o^– cells (Figure 7). Indeed, RNF5 can modulate cell motility and proliferation by regulating paxillin ubiquitylation and thus its degradation.[53] For the proliferation assay, CFBE41o^– cells stably co-expressing F508del-CFTR and the HS-YFP were treated with test compounds (5 μM), VX-809 (1 μM), or vehicle alone (DMSO) for 48 h. Cell proliferation was then monitored by measuring the area covered by the cells based on the YFP signal. For the apoptosis assay, 24 h after plating, CFBE41o^– cells stably expressing F508del-CFTR were treated with test compounds (5, 20, and 100 μM), VX-809 (1 μM), MG132 (50 μM), or vehicle alone (DMSO) for 24 h. Cell nuclei were then counterstained with Hoechst 33342 and propidium iodide to visualize the total and apoptotic cell count, respectively, and imaged by using an Opera Phenix high-content screening system.
CFBE41o^– cells stably expressing F508del-CFTR and the HS-YFP were plated at a low density (5000 cell/well) on 96-well plates suitable for high-content imaging. […] Cell proliferation was monitored (by exploiting the YFP signal to determine the area covered by cells) for 48 h using the Opera Phenix (PerkinElmer) high-content screening system. […] Data are expressed as means ± SEM, n = 6. […]

[4] = target: T1, F508del-CFTR in CFBE41o– cells; set-up: method as in PMID 29754957; settings: cited from earlier work

SMILES	F508del-CFTR corrector activity compared with inh-2 (CFTR activity, primary screen) [1]	solubility [2] [µM]	aggregation in PBS buffer by NMR [2]	number of autophagic vacuoles (MDC signal spots) [3]	solubility at 50 µM [2] [µM]	solubility at 100 µM [2] [µM]	cell apoptosis (CFBE41o– cells)	CFTR corrector activity (in words) [4]
Cc1ns/c(=N\C(=N\c2ccccc2)c2ccncc2)n1Cc1ccccc1 [Compound 34, (E)-N-((Z)-4-Benzyl-3-methyl-1,2,4-thiadiazol-5(4H)-ylidene)-N′-phenylisonicotinimidamide]	maintaining the activity equal to inh-2	10 (≈ 3.85 µg/mL)	no	significantly decreased				
Cc1ns/c(=N\C(=N\c2ccccc2)c2ccccc2)n1Cc1cccc(O)c1 [Compound 17, (E)-N-((Z)-4-(3-Hydroxybenzyl)-3-methyl-1,2,4-thiadiazol-5(4H)-ylidene)-N′-phenylbenzimidamide]	increased activity	< 5	no		<5	<5	markedly increased cell apoptosis	
Cc1ns/c(=N\C(=N\c2ccccc2)c2ccccc2)n1-c1ccccc1 [analog-1, reference compound]		< 5	no	significantly decreased	<5	<5		no activity as a CFTR corrector; also recorded: lack of CFTR corrector activity
